For 3 compounds, IC50 results are on record in ChEMBL document CHEMBL5728847, “Cyanoindoline derivatives as NIK inhibitors” (2021).

pIC50: −log10 of the molar value.

Chain of Mitogen-activated protein kinase kinase kinase 14 (Q99558 whole entry): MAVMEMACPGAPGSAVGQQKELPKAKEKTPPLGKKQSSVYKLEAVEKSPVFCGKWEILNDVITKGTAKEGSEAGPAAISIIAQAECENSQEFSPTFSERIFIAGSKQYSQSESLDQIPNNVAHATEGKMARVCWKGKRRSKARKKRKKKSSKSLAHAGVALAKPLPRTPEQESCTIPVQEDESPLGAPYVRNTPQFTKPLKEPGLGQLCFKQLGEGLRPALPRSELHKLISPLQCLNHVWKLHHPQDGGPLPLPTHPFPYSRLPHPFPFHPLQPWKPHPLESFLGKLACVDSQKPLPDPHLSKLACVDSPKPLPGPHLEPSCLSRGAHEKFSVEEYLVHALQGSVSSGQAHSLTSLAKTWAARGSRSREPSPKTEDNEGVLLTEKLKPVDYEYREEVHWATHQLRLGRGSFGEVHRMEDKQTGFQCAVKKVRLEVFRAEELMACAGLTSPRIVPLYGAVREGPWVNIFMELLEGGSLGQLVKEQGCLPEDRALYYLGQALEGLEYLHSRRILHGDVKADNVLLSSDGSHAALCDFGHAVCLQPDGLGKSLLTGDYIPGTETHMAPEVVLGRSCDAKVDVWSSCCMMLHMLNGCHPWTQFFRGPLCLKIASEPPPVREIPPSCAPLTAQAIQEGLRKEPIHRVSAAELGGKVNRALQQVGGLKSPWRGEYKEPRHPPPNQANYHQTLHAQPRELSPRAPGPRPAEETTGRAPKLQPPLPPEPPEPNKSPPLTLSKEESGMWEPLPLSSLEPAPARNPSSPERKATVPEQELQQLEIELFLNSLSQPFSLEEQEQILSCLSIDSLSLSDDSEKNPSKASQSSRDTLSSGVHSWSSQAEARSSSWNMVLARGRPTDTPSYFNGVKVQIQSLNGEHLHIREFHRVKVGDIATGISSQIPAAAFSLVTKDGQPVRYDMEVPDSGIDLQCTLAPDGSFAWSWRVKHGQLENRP

This assay has as its target Mitogen-activated protein kinase kinase kinase 14 (Homo sapiens, UniProt Q99558). Nature of the assay: Inhibition of Auto-Phosphorylation of Recombinant Human NF-kappaB-Inducing Kinase (NIK1/AP3K14) Activity: NIK/MAP3K14 auto-phosphorylation activity was measured using the AlphaScreen® (αscreen) format (Perkin Elmer). All compounds tested were dissolved in dimethyl sulfoxide (DMSO) and further dilutions were made in assay buffer. Final DMSO concentration was […] in assays. Assay buffer was 50 mM Tris pH 7.5 containing 1 mM EGTA (ethylene glycol tetraacetic acid), 1 mM DTT (dithiothreitol), 0.1 mM Na3VO4, 5 mM MgCl2, 0.01% Tween® 20. Assays were carried out in 384 well Alphaplates (Perkin Elmer). Incubations consisted of compound, 25 microM Adenosine-5′-triphosphate (ATP), and 0.2 nM NIK/MAP3K14. Incubations were initiated by addition of GST-tagged NIK/MAP3K14 enzyme, carried out for 1 h at 25° C. and terminated by addition of stop buffer containing anti-phospho-[…] Ser176/180 antibody. Protein A Acceptor and Glutathione-Donor beads were added before reading using an EnVision® Multilabel Plate Reader (Perkin Elmer). Signal obtained in the wells containing blank samples was subtracted from all other wells and IC50's were determined by fitting a sigmoidal curve to % inhibition of control versus Log10 compound concentration. A general note: Bead proximity is the source of the signal in Alpha formats.
Turning to `CN1CCc2ncc(Nc3ncc(F)c(-c4cc(C#N)c5c(c4)[C@@](C)(CO)CN5)n3)cc2C1`, the pIC50 (as a rule, the IC50 on a negative log10 scale, so that one unit is a factor of ten) is 8.38.

Turning to `CC1(C)CNc2c(C#N)cc(-c3ccnc(Nc4cc(Cl)cc5[nH]ccc45)n3)cc21`, the pIC50 is 6.83.

Turning to `COc1nc2c(cc1Nc1nccc(-c3cc(C#N)c4c(c3)[C@@](C)(CO)CN4)n1)CCN(C)C2`, the pIC50 was 8.74.
